ChEMBL document CHEMBL3137667, “[Drug-induced liver injury; fourteenth updated edition of the bibliographic database of liver injuries and related drugs]” (Gastroenterol Clin Biol, 2004)

Key:
[1] = human
[2] = human, serum, 4383 h
[3] = human, serum
[4] = human; remark: listed apart in the source
[5] = human; remark: listed apart in the source
[6] = human; remark: listed apart in the source
[7] = Highest frequency of moderate liver toxicity observed during clinical trials, expressed as a percentage. [column '% BIOL' in source]; settings: human
[8] = Highest frequency of acute liver toxicity observed during clinical trials, expressed as a percentage. [column '% AIGUE' in source]; settings: human
[9] = human; remark: listed apart in the source
[10] = human; remark: listed apart in the source
[11] = human; remark: listed apart in the source
[12] = human, serum; remark: listed apart in the source
[13] = human; remark: listed apart in the source
[14] = human; remark: listed apart in the source
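Wherever Hepatotoxicity (association with vascular disease) is given: count of indexed literature references reporting vascular liver injury in humans, e.g. peliosis hepatitis, hepatic veno-occlusive disease or Budd-Chiari syndrome.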
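Wherever Hepatotoxicity (benign tumour) is given: value is a count of indexed literature references citing a benign tumour confirmed by histopathology.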
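Wherever Hepatotoxicity (choleostasis) is given: human cholestatic liver injury, shown by histopathology or by peak ALT or AST elevation over alkaline phosphatase ratio below 2, value counts indexed literature reports.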
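Wherever Hepatotoxicity (chronic liver disease) is given: chronic liver injury confirmed by histopathology or persistently raised serum aminotransferase activity beyond 6 months, value given as the count of indexed literature references.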
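Wherever Hepatotoxicity (cirrhosis) is given: value is a count of indexed literature references reporting cirrhosis confirmed by histopathology.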
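Wherever Hepatotoxicity (cytolytic) is given: human cytolytic liver injury, shown by histopathology or by a ratio above 5 of peak ALT or AST elevation to alkaline phosphatase elevation, value counts indexed references.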
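Wherever Hepatotoxicity (granulomatous hepatitis) is given: value is a count of indexed literature references reporting granulomatous liver disease confirmed by histopathology.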
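Wherever Hepatotoxicity (malignant tumour) is given: malignant tumour confirmed by histopathology, value gives the count of indexed literature references reporting it.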
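Wherever Hepatotoxicity (severe hepatitis) is given: human clinical data: severe hepatitis, meaning potentially life-threatening liver failure or clinically observed cases, the value counts how many indexed literature references report it.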
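Wherever Hepatotoxicity (steatosis) is given: steatosis confirmed by histopathology, value is the count of indexed references.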

Compound | Hepatotoxicity (cytolytic) [1] | Hepatotoxicity (chronic liver disease) [2] | Hepatotoxicity (moderate) [3] | Hepatotoxicity (cirrhosis) [4] | Hepatotoxicity (association with vascular disease) [5] | Hepatotoxicity (malignant tumour) [6] | Hepatotoxicity (moderate) [7] [%] | Hepatotoxicity (acute) [8] [%] | Hepatotoxicity (choleostasis) [9] | Hepatotoxicity (severe hepatitis) [10] | Hepatotoxicity (steatosis) [11] | Hepatotoxicity (acute) [12] | Hepatotoxicity (benign tumour) [13] | Hepatotoxicity (granulomatous hepatitis) [14]
CCC(C(=O)NC(N)=O)c1ccccc1 (stereo not drawn) [PHENETURIDE] | 0 | 0 | 1 | 0 | 0 | 0 | 0 | 0 | 0 | 0 | 0 | 0 | 0 | 0
CC(C)NCC(O)COc1ccc(COCCOC(C)C)cc1 (stereo not drawn) [BISOPROLOL] | 0 | 0 | 3 | 0 | 0 | 0 | 7.1 | 0 | 0 | 0 | 0 | 0 | 0 | 0
CCCCC(C)(O)C/C=C/[C@H]1[C@H](O)CC(=O)[C@@H]1CCCCCCCO (stereo partly drawn) [RIOPROSTIL] | 0 | 0 | 1 | 0 | 0 | 0 | 10 | 0 | 0 | 0 | 0 | 0 | 0 | 0
POVIDONE | 0 | 0 | 0 | 1 | 0 | 0 | 0 | 0 | 0 | 0 | 0 | 0 | 0 | 0
CCC(=O)NS(=O)(=O)c1ccc(-c2c(-c3ccccc3)noc2C)cc1 [PARECOXIB] | 0 | 0 | 1 | 0 | 0 | 0 | 6.5 | 0 | 0 | 0 | 0 | 0 | 0 | 0
CC(C)NCC1CCc2cc(CO)c([N+](=O)[O-])cc2N1 (stereo not drawn) [OXAMNIQUINE] | 0 | 0 | 3 | 0 | 0 | 0 | 0 | 0 | 0 | 0 | 0 | 0 | 0 | 0
C/N=C(/Cc1ccc2ccccc2c1)NC [NAPACTADINE] | 0 | 0 | 1 | 0 | 0 | 0 | 0 | 0 | 0 | 0 | 0 | 0 | 0 | 0
CC(=O)OCOC(=O)C1=C(COC(N)=O)SC2[C@H]([C@H](C)O)C(=O)N12 (stereo partly drawn) | 0 | 0 | 25 | 0 | 0 | 0 | 20 | 0 | 0 | 0 | 0 | 0 | 0 | 0
C[C@]1(O)CC[C@H]2[C@@H]3CCC4=CC(=O)CC[C@@H]4[C@H]3CC[C@@]21C [NORMETHANDRONE] | 0 | 0 | 0 | 0 | 0 | 0 | 0 | 0 | 1 | 0 | 0 | 2 | 0 | 0
CC(=O)NCCOC(=O)C(Oc1cccc(C(F)(F)F)c1)c1ccc(Cl)cc1 (stereo not drawn) [HALOFENATE] | 0 | 0 | 1 | 0 | 0 | 0 | 0 | 0 | 0 | 0 | 0 | 0 | 0 | 0
COc1cccc(C2(O)CCCCC2CN(C)C)c1 (stereo not drawn) [TRAMADOL] | 0 | 0 | 1 | 0 | 0 | 0 | 0 | 0 | 0 | 0 | 0 | 0 | 0 | 0
CCCCC(C)(C)[C@H](O)/C=C/[C@H]1[C@H](C)CC(=O)[C@@H]1C/C=C\CCCC(=O)O [TRIMOPROSTIL] | 0 | 0 | 1 | 0 | 0 | 0 | 0 | 0 | 0 | 0 | 0 | 0 | 0 | 0
